Reference: patent US20230069963A1, “PYRAZOLO[1,5-A]PYRIMIDINE MACROCYCLIC COMPOUND” (priority 2018, published 2023)

What follows are compounds tested on RSV ATCC VR-1540 (A2) (assay: microbe, parasite or virus in culture). Settings: human respiratory syncytial virus, HEp-2, 96 h; Hep2 cells, incubated for 4 days, CPE detected with XTT assay (absorbance 450 nm); read-out: EC50 (nmol/L) against RSV A2 strain.
Assay type: cell-based
With CCCc1cc2n3nc(cc3n1)[C@@H]1CCCCN1C(=O)c1cc(CN)ccc1OCC(=O)NCCN2C [Example 101, (18aS)-2-(aminomethyl)-11-methyl-13-propyl-8,9,10,11,19,20,21,22-octahydro-18aH,24H-18,15-(metheno)pyrido[2,1-l]pyrimido[6,1-h][1,4,7,9,10,13]benzoxapentaazacyclohexadecine-7,24(6H)-dione] the EC50 was 11.9 nmol/L. With Cc1ccc2c(c1)C(=O)N1CCCC[C@H]1c1cc3nc(C4CC4)cc(n3n1)N(C)CCNC(=O)CO2 [Example 102, (18aS)-13-cyclopropyl-2,11-dimethyl-8,9,10,11,19,20,21,22-octahydro-18aH,24H-18,15-(metheno)pyrido[2,1-l]pyrimido[6,1-h][1,4,7,9,10,13]benzoxapentaazacyclohexadecine-7,24(6H)-dione] the EC50 was 0.239 nmol/L. In the case of CN1CCNC(=O)COc2ccc(Cl)cc2C(=O)N2CCCCC2c2cc3nc(C4CC(O)C4)cc1n3n2 [Example 111, (18aS)-2-chloro-13-(cis-3-hydroxycyclobutyl)-11-methyl-8,9,10,11,19,20,21,22-octahydro-18aH,24H-18,15-(metheno)pyrido[2,1-l]pyrimido[6,1-h][1,4,7,9,10,13]benzoxapentaazacyclohexadecine-7,24(6H)-dione], the EC50 is reported as 0.448 nmol/L. O=C1COc2ccc(F)cc2C(=O)N2CCCC[C@H]2c2cc3nc(C4CC4)cc(n3n2)CCCN1 [Example 121, (18aS)-13-cyclopropyl-2-fluoro-8,9,10,11,19,20,21,22-octahydro-18aH,24H-18,15-(metheno)pyrido[2,1-l]pyrimido[6,1-h][1,4,9,10,13]benzoxatemazacyclohexadecine-7,24(6H)-dione] showed an EC50 of 11 nmol/L. With CN1CCNCCOc2ccc(F)cc2C(=O)N2CCCC[C@H]2c2cc3nc(N4CCC4)cc1n3n2 [Example 133, (18aS)-13-(azetidin-1-yl)-2-fluoro-11-methyl-6,7,8,9,10,11,19,20,21,22-decahydro-18aH,24H-18,15-(metheno)pyrido[2,1-l]pyrimido[6,1-h][1,4,7,9,10,13]benzoxapentaazacyclohexadecin-24-one] the EC50 was 1.36 nmol/L. CC1COc2ccc(F)cc2C(=O)N2CCCCC2c2cc3nc(N4CC(N)C4)cc(n3n2)N(C)CCN1 [Example 145, (18aS)-13-(3-aminoazetidin-1-yl)-2-fluoro-7,11-dimethyl-6,7,8,9,10,11,19,20,21,22-decahydro-18aH,24H-18,15-(metheno)pyrido[2,1-l]pyrimido[6,1-h][1,4,7,9,10,13]benzoxapentaazacyclohexadecin-24-one] was tested, and the EC50 was 17.5 nmol/L. CN1CCOc2ccc(Cl)cc2C(=O)N2CCCC[C@H]2c2cc3nc(N4CC(N)C4)cc(n3n2)N(C)CC1 [Example 151, (18aS)-13-(3-aminoazetidin-1-yl)-2-chloro-8,11-dimethyl-6,7,8,9,10,11,19,20,21,22-decahydro-18aH,24H-18,15-(metheno)pyrido[2,1-l]pyrimido[6,1-h][1,4,7,9,10,13]benzoxapentaazacyclohexadecin-24-one] was tested, and the EC50 was 17 nmol/L. CN1CCOc2ccc(Cl)cc2C(=O)N2CCCC[C@H]2c2cc3nc(NC4CNC4)cc(n3n2)N(C)CC1 [Example 161, (18aS)-13-[(azetidin-3-yl)amino]-2-chloro-8,11-dimethyl-6,7,8,9,10,11,19,20,21,22-decahydro-18aH,24H-18,15-(metheno)pyrido[2,1-l]pyrimido[6,1-h][1,4,7,9,10,13]benzoxapentaazacyclohexadecin-24-one] gave an EC50 of 19.6 nmol/L. Work on CN1CCOc2ccc(Cl)cc2C(=O)N2CCCC[C@H]2c2cc3nc(N4CC(F)C4)cc(n3n2)N(C)CC1 [Example 162, (18aS)-2-chloro-13-(3-fluoroazetidin-1-yl)-8,11-dimethyl-6,7,8,9,10,11,19,20,21,22-decahydro-18aH,24H-18,15-(metheno)pyrido[2,1-l]pyrimido[6,1-h][1,4,7,9,10,13]benzoxapentaazacyclohexadecin-24-one] yielded an EC50 of 4.51 nmol/L.
